Data: ChEMBL document CHEMBL3351476, “The discovery of I-BET726 (GSK1324726A), a potent tetrahydroquinoline ApoA1 up-regulator and selective BET bromodomain inhibitor” (J Med Chem, 2014)

Assays:
[1] = Volume of distribution at steady state in Balb/c mouse at 10 mg/kg, iv as bolus dose; type: ADME, organism-based; parameters: dose 10 mg/kg, route intravenous; details: in vivo, read-out: Vdss
[2] = target: Bromodomain adjacent to zinc finger domain protein 2A (Homo sapiens, UniProt Q9UIF9); assay: Inhibition of human BAZ2A by BROMOscan assay
[3] = Terminal half life in Balb/c mouse at 10 mg/kg, iv as bolus dose; type: ADME, organism-based; parameters: dose 10 mg/kg, route intravenous; details: in vivo, read-out: beta t1/2 (converted)
[4] = target: T1, Bromodomain-containing protein 3 (Homo sapiens, UniProt Q15059); assay: Inhibition of human BRD3 bromodomain 2 by BROMOscan assay
[5] = Blood clearance in rat at 1 mg/kg, iv as infusion and 3 mg/kg, po; type: ADME, organism-based; details: whole blood
[6] = Volume of distribution at steady state in Cynomolgus monkey at 1 mg/kg, iv as infusion and 3 mg/kg, po; type: ADME, organism-based, Macaca fascicularis; details: in vivo, read-out: Vdss
[7] = Fraction unbound in dog blood by rapid equilibrium dialysis method; type: ADME, tissue-based, Canis lupus familiaris
[8] = target: ATPase family AAA domain-containing protein 2B (Homo sapiens, UniProt Q9ULI0); assay: Inhibition of human ATAD2B by BROMOscan assay
[9] = target: E3 ubiquitin-protein ligase TRIM33 (Homo sapiens, UniProt Q9UPN9); assay: Inhibition of human TIF1gamma PHD/bromodomain by BROMOscan assay
[10] = Oral bioavailability in beagle dog at 3 mg/kg; type: ADME, organism-based, Canis lupus familiaris; details: in vivo
Hepatocyte = assay: Clearance in rat hepatocytes assessed per gram of tissue at 1 uM by LC-MS/MS analysis; type: ADME, cell-based
CREB-binding protein = CREB-binding protein (Homo sapiens, UniProt Q92793); assay: Inhibition of human CREBBP by BROMOscan assay
Cytochrome P450 2D6 = Cytochrome P450 2D6 (Homo sapiens, UniProt P10635); assay: Inhibition of recombinant human CYP2D6 expressed in Escherichia coli bactosomes using 4-methylaminomethyl-7-methoyxycoumarin as substrate after 10 mins by fluorescence assay; type: ADME
Protein polybromo-1 [11] = target: T2, Protein polybromo-1 (Homo sapiens, UniProt Q86U86); assay: Inhibition of human PBRM1 bromodomain 1 by BROMOscan assay
[12] = Volume of distribution at steady state in rat at 1 mg/kg, iv as infusion and 3 mg/kg, po; type: ADME, organism-based; details: in vivo, read-out: Vdss
[13] = Clearance in dog hepatocytes assessed per gram of tissue at 1 uM by LC-MS/MS analysis; type: ADME, cell-based, Canis lupus familiaris, Hepatocyte
[14] = target: T3, Transcription intermediary factor 1-alpha (Homo sapiens, UniProt O15164); assay: Inhibition of human TIF1alpha bromodomain by BROMOscan assay
[15] = Permeability of the compound by PAMPA; type: ADME; details: read-out: permeability
[16] = Blood clearance in Balb/c mouse at 10 mg/kg, iv as bolus dose; type: ADME, organism-based; parameters: dose 10 mg/kg, route intravenous; details: whole blood
Mus musculus = assay: Antiinflammatory activity in septic shock Balb/c mouse model assessed as mouse survival at 10 mg/kg, iv as single dose post LPS challenge measured after 5 days post treatment relative to vehicle-treated control; type: functional; details: 120 h
[17] = target: Transcription initiation factor TFIID subunit 1 (Homo sapiens, UniProt P21675); assay: Inhibition of human TAF1 by BROMOscan assay
[18] = Fraction unbound in rat blood by rapid equilibrium dialysis method; type: ADME, tissue-based
[19] = AUC (0 to t) in rat at 3 mg/kg, po; type: ADME, organism-based; parameters: dose 3 mg/kg, route oral; details: plasma
[20] = target: ATPase family AAA domain-containing protein 2 (Homo sapiens, UniProt Q6PL18); assay: Inhibition of human ATAD2 by BROMOscan assay
[21] = target: Histone acetyltransferase KAT2B (Homo sapiens, UniProt Q92831); assay: Inhibition of human PCAF by BROMOscan assay
[22] = target: T4, Bromodomain-containing protein 2 (Homo sapiens, UniProt P25440); assay: Displacement of biotinylated tetra-acetylated histone H4 from His6-tagged BRD2 (1 to 473 aa) (unknown origin) after 1 hr by TR-FRET assay
[23] = target: T1, Bromodomain-containing protein 3; assay: Displacement of biotinylated tetra-acetylated histone H4 from His6-tagged BRD3 (1 to 475 aa) (unknown origin) after 1 hr by TR-FRET assay
Cytochrome P450 1A2 = Cytochrome P450 1A2 (Homo sapiens, UniProt P05177); assay: Inhibition of CYP1A2 (unknown origin) expressed in Escherichia coli bactosomes using ethoxyresorufin as substrate after 10 mins by fluorescence assay; type: ADME
[24] = target: Chromatin remodeling regulator CECR2 (Homo sapiens, UniProt Q9BXF3); assay: Inhibition of human CECR2 by BROMOscan assay
[25] = target: SWI/SNF-related matrix-associated actin-dependent regulator of chromatin subfamily A member 2 (Homo sapiens, UniProt P51531); assay: Inhibition of human SMARCA2 by BROMOscan assay
[26] = Oral bioavailability in Cynomolgus monkey at 2 mg/kg; type: ADME, organism-based, Macaca fascicularis; details: in vivo
[27] = Terminal half life in beagle dog at 1 mg/kg, iv as infusion; type: ADME, organism-based, Canis lupus familiaris; parameters: dose 1 mg/kg, route intravenous; details: in vivo, read-out: beta t1/2 (converted)
[28] = Volume of distribution at steady state in beagle dog at 1 mg/kg, iv as infusion and 3 mg/kg, po; type: ADME, organism-based, Canis lupus familiaris; details: in vivo, read-out: Vdss
Cytochrome P450 2C19 = Cytochrome P450 2C19 (Homo sapiens, UniProt P33261); assay: Inhibition of CYP2C19 (unknown origin) expressed in Escherichia coli bactosomes using 3-butyryl-7-methoxycoumarin as substrate after 10 mins by fluorescence assay; type: ADME
[29] = target: T4, Bromodomain-containing protein 2; assay: Binding affinity to His6-tagged BRD2 (1 to 473 aa) (unknown origin) by SPR method
[30] = target: Bromodomain testis-specific protein (Homo sapiens, UniProt Q58F21); assay: Inhibition of BRDT (unknown origin) by TR-FRET assay
[31] = target: Bromodomain-containing protein 7 (Homo sapiens, UniProt Q9NPI1); assay: Inhibition of human BRD7 by BROMOscan assay
[32] = Terminal half life in rat at 1 mg/kg, iv as infusion; type: ADME, organism-based; parameters: dose 1 mg/kg, route intravenous; details: in vivo, read-out: beta t1/2
[33] = target: T3, Transcription intermediary factor 1-alpha; assay: Inhibition of human TIF1alpha PHD/bromodomain by BROMOscan assay
[34] = Blood clearance in beagle dog at 1 mg/kg, iv as infusion and 3 mg/kg, po; type: ADME, organism-based, Canis lupus familiaris; details: whole blood
Protein polybromo-1 [35] = target: T2, Protein polybromo-1; assay: Inhibition of human PBRM1 bromodomain 5 by BROMOscan assay
[36] = target: T4, Bromodomain-containing protein 2; assay: Inhibition of human BRD2 bromodomain 2 by BROMOscan assay
[37] = AUC (0 to t) in Balb/c mouse at 3 mg/kg, po; type: ADME, organism-based; parameters: dose 3 mg/kg, route oral; details: plasma
[38] = Fraction unbound in mouse blood by rapid equilibrium dialysis method; type: ADME, tissue-based
[39] = Oral bioavailability in rat at 3 mg/kg; type: ADME, organism-based; details: in vivo
[40] = Clearance in Cynomolgus monkey hepatocytes assessed per gram of tissue at 1 uM by LC-MS/MS analysis; type: ADME, cell-based, Macaca fascicularis, Hepatocyte
[41] = target: Bromodomain and WD repeat-containing protein 1 (Homo sapiens, UniProt Q9NSI6); assay: Inhibition of human WDR9 bromodomain 2 by BROMOscan assay
[42] = target: Transcription initiation factor TFIID subunit 1-like (Homo sapiens, UniProt Q8IZX4); assay: Inhibition of human TAF1L by BROMOscan assay
[43] = Terminal half life in Cynomolgus monkey at 1 mg/kg, iv as infusion; type: ADME, organism-based, Macaca fascicularis; parameters: dose 1 mg/kg, route intravenous; details: in vivo, read-out: beta t1/2 (converted)

T4 sequence (P25440 whole entry, the tested form may be a part): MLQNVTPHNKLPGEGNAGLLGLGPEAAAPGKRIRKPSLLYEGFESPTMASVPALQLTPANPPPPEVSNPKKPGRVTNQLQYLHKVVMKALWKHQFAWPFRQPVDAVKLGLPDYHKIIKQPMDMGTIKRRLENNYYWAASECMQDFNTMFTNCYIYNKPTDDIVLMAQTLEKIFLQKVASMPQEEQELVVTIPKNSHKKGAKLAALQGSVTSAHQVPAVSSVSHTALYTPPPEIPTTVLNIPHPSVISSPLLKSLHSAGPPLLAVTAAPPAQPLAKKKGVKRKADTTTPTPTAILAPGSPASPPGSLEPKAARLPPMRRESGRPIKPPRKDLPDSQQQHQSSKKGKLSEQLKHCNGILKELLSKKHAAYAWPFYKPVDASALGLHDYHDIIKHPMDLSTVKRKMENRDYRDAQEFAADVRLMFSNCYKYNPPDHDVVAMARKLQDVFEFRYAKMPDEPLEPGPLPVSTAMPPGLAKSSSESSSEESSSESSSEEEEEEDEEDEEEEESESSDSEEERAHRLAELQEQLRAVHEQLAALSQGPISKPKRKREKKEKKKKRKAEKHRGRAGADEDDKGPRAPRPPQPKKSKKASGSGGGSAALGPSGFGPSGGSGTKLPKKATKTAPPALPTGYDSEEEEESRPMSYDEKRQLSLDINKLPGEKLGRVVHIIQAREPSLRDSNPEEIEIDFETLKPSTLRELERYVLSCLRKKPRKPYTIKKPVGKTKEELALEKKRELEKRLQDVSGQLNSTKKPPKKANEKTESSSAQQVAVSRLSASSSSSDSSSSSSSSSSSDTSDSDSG
T2 sequence (Q86U86 whole entry, the tested form may be a part): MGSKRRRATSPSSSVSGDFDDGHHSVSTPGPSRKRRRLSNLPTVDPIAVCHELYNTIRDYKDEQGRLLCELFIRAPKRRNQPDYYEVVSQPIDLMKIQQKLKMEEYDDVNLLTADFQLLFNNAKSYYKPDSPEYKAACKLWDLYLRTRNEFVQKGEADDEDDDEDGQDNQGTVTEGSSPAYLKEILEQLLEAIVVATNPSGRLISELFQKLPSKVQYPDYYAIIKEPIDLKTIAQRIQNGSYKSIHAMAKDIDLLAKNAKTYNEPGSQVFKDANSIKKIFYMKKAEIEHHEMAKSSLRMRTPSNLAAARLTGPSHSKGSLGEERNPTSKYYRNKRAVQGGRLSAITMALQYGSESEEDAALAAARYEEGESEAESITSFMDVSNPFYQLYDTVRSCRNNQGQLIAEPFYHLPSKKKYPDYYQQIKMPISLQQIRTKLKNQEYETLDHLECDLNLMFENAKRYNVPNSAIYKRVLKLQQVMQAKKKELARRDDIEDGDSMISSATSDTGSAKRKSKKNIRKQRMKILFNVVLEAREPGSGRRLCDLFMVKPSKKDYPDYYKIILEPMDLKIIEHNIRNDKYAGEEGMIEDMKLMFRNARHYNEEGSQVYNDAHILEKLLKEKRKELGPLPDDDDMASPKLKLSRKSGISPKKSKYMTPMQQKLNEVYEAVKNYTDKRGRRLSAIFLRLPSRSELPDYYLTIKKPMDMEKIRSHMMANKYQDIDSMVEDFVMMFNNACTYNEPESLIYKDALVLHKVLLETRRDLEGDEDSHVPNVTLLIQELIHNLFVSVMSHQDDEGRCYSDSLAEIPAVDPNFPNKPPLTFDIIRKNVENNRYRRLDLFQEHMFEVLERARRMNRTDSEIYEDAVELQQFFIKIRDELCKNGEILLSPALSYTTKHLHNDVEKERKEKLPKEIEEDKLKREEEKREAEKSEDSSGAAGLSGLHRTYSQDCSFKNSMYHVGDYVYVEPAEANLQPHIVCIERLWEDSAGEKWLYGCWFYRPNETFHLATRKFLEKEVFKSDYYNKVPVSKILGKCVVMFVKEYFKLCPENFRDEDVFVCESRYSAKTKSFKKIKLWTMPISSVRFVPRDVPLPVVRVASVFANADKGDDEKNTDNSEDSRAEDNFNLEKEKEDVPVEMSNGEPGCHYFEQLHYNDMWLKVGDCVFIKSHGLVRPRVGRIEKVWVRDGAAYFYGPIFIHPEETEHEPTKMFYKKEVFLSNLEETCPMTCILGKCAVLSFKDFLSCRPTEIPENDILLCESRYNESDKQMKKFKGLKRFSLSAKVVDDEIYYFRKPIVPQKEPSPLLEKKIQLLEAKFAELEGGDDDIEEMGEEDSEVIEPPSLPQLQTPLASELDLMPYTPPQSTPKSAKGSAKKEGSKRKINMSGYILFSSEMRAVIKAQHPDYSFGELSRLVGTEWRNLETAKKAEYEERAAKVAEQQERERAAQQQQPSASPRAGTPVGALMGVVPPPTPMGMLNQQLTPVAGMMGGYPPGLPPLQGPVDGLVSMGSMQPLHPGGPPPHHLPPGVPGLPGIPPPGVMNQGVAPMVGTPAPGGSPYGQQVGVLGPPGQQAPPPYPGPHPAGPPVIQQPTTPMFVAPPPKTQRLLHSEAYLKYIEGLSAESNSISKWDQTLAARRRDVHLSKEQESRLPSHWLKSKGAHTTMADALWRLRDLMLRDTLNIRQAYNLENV
T1 sequence (Q15059 whole entry, the tested form may be a part): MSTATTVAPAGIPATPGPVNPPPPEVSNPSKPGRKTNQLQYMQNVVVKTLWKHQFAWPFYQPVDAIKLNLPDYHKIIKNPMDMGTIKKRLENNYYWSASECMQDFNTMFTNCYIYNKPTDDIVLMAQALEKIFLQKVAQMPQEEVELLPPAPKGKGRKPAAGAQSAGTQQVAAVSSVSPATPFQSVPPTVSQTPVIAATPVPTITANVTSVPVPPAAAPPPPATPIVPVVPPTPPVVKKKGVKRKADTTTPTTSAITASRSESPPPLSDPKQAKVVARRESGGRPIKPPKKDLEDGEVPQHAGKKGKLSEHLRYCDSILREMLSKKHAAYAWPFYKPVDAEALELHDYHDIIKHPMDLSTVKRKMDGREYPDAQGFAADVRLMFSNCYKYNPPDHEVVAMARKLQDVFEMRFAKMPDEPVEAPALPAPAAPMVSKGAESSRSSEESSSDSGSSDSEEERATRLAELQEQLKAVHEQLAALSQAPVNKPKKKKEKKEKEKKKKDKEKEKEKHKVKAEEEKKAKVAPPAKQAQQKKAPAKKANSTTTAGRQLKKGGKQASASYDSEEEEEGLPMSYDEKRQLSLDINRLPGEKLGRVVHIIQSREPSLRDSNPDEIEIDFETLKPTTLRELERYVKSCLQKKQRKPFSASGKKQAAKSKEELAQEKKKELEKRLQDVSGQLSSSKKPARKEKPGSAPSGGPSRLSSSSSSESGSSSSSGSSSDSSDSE
T3 sequence (O15164 whole entry): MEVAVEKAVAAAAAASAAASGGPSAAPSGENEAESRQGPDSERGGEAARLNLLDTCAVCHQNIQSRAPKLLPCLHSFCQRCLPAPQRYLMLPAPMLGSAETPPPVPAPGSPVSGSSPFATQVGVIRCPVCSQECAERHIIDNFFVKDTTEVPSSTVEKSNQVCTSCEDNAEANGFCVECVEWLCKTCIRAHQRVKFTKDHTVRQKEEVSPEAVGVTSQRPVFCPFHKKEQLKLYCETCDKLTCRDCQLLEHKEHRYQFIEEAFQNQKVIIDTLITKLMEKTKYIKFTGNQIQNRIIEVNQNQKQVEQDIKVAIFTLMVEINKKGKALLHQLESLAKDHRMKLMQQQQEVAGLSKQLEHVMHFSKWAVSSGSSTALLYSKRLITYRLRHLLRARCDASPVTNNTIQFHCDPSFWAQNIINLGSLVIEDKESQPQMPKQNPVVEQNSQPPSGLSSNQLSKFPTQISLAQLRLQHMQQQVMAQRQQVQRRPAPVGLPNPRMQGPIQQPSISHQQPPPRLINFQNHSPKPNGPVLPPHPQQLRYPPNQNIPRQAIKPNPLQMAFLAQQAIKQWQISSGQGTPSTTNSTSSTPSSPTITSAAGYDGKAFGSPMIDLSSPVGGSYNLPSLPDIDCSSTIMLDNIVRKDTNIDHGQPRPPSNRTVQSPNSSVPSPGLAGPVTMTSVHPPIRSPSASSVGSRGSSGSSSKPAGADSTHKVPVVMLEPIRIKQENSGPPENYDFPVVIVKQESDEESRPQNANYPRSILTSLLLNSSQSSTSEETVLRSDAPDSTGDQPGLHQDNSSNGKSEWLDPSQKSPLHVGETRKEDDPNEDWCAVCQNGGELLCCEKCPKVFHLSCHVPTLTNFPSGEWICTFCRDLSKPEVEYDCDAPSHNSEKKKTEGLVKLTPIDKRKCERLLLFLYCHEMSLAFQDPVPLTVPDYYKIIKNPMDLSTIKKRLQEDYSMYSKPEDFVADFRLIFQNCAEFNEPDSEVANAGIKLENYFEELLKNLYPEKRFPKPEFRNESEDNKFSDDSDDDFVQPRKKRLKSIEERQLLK
Cytochrome P450 2D6, sequence (P10635 whole entry): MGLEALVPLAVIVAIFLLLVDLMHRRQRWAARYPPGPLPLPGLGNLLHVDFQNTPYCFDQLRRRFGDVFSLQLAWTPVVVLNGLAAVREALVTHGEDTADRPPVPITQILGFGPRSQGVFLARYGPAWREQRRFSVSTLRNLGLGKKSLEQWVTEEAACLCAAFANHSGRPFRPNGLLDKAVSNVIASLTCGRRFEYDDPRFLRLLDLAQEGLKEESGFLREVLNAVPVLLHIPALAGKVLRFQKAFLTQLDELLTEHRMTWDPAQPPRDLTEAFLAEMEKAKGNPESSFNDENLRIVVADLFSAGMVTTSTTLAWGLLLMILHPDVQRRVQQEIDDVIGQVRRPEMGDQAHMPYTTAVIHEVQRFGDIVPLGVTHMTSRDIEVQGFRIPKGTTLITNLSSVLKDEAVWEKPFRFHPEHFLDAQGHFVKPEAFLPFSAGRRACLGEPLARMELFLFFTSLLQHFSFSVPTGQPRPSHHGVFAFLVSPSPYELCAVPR

Question: With `CC(=O)N1c2ccc(-c3ccc(C(=O)O)cc3)cc2[C@H](Nc2ccc(Cl)cc2)C[C@@H]1C` as the compound, how does the Vd [1] read?
Answer: 0.48 L/kg

Question: And the IC50 [2]?
Answer: > 31.6 µM

Question: What about the half-life [3] of the same compound?
Answer: 216 min

Question: And the IC50 [4]?
Answer: 2 nM

Question: What about the clearance [5] of the same compound?
Answer: 26 mL/min/kg

Question: What about the Vd [6] of the same compound?
Answer: 1 L/kg

Question: What about the fraction unbound [7] of the same compound?
Answer: 0.065

Question: What about the IC50 [8] of the same compound?
Answer: > 31.6 µM

Question: What about the IC50 [9] of the same compound?
Answer: > 10 µM

Question: And the bioavailability [10]?
Answer: 80%

Question: What about the CLH (Hepatocyte) of the same compound?
Answer: < 0.85 mL/min/g

Question: What about the IC50 (CREB-binding protein) of the same compound?
Answer: 31.6 µM

Question: What about the IC50 (Cytochrome P450 2D6) of the same compound?
Answer: > 33 µM

Question: What about the IC50 (Protein polybromo-1 [11]) of the same compound?
Answer: 631 nM

Question: And the Vd [12]?
Answer: 2 L/kg

Question: And the CLH [13]?
Answer: < 1.7 mL/min/g

Question: And the IC50 [14]?
Answer: 10 µM

Question: What about the Papp [15] of the same compound?
Answer: 9.5 ×10⁻⁶ cm/s

Question: And the clearance [16]?
Answer: 3.1 mL/min/kg

Question: And the survival at 10 mg/kg (Mus musculus)?
Answer: 56%

Question: And the IC50 [17]?
Answer: 31.6 µM

Question: What about the fraction unbound [18] of the same compound?
Answer: 0.009

Question: What about the AUC(0-t) [19] of the same compound?
Answer: 539 ng·h/mL

Question: And the IC50 [20]?
Answer: > 31.6 µM

Question: What about the IC50 [21] of the same compound?
Answer: > 7.94 µM

Question: And the IC50 [22]?
Answer: 158 nM

Question: And the IC50 [23]?
Answer: 200 nM

Question: What about the IC50 (Cytochrome P450 1A2) of the same compound?
Answer: > 33 µM

Question: What about the IC50 [24] of the same compound?
Answer: > 31.6 µM

Question: What about the IC50 [25] of the same compound?
Answer: > 31.6 µM

Question: And the bioavailability [26]?
Answer: 103%

Question: What about the half-life [27] of the same compound?
Answer: 108 min

Question: And the Vd [28]?
Answer: 0.8 L/kg

Question: And the IC50 (Cytochrome P450 2C19)?
Answer: 12 µM

Question: What about the Kd [29] of the same compound?
Answer: 25 nM

Question: And the IC50 [30]?
Answer: 50.1 nM

Question: And the IC50 [31]?
Answer: > 1.26 nM

Question: And the half-life [32]?
Answer: > 480 min

Question: And the IC50 [33]?
Answer: 15.8 µM

Question: What about the clearance [34] of the same compound?
Answer: 6 mL/min/kg

Question: And the IC50 (Protein polybromo-1 [35])?
Answer: > 31.6 µM

Question: What about the IC50 [36] of the same compound?
Answer: 3.16 nM

Question: What about the AUC(0-t) [37] of the same compound?
Answer: 6030 ng·h/mL

Question: What about the fraction unbound [38] of the same compound?
Answer: 0.013

Question: What about the bioavailability [39] of the same compound?
Answer: 28%

Question: What about the CLH [40] of the same compound?
Answer: < 0.85 mL/min/g

Question: What about the IC50 [41] of the same compound?
Answer: 31.6 µM

Question: What about the IC50 [42] of the same compound?
Answer: 31.6 µM

Question: And the half-life [43]?
Answer: 162 min
